Results published in PubChem BioAssay (NCI).
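Results reflect a 48-hour exposure of cells in 96-well plates to compound at five concentrations. GI50 is the concentration that inhibits growth by half. Definition used: TGI = concentration required for complete inhibition of growth.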

How the values were obtained:
Assay in all cases: NCI anticancer screen, dose series, 48 h
786-0 renal = tested on: 786-0 renal
A498 renal = tested on: A498 renal
A549 NSCLC = tested on: A549 NSCLC
ACHN renal = tested on: ACHN renal
BT-549 breast = tested on: BT-549 breast
CAKI-1 renal = tested on: CAKI-1 renal
CCRF-CEM leukemia = tested on: CCRF-CEM leukemia
COLO 205 colon = tested on: COLO 205 colon
DU-145 prostate = tested on: DU-145 prostate
EKVX NSCLC = tested on: EKVX NSCLC
HCC-2998 colon = tested on: HCC-2998 colon
HCT-116 colon = tested on: HCT-116 colon
HCT-15 colon = tested on: HCT-15 colon
HL-60(TB) leukemia = tested on: HL-60(TB) leukemia
HOP-62 NSCLC = tested on: HOP-62 NSCLC
HOP-92 NSCLC = tested on: HOP-92 NSCLC
HS 578T breast = tested on: HS 578T breast
HT29 colon = tested on: HT29 colon
IGROV1 ovarian = tested on: IGROV1 ovarian
K-562 leukemia = tested on: K-562 leukemia
KM12 colon = tested on: KM12 colon
LOX IMVI melanoma = tested on: LOX IMVI melanoma
M14 melanoma = tested on: M14 melanoma
MALME-3M melanoma = tested on: MALME-3M melanoma
MCF7 breast = tested on: MCF7 breast
MDA-MB-231 breast = tested on: MDA-MB-231 breast
MDA-MB-435 = tested on: MDA-MB-435
MOLT-4 leukemia = tested on: MOLT-4 leukemia
NCI-H226 lung = tested on: NCI-H226 lung
NCI-H23 lung = tested on: NCI-H23 lung
NCI-H460 lung = tested on: NCI-H460 lung
NCI-H522 lung = tested on: NCI-H522 lung
NCI/ADR-RES ovarian = tested on: NCI/ADR-RES ovarian
OVCAR-4 ovarian = tested on: OVCAR-4 ovarian
OVCAR-5 ovarian = tested on: OVCAR-5 ovarian
OVCAR-8 ovarian = tested on: OVCAR-8 ovarian
PC-3 prostate = tested on: PC-3 prostate
RPMI-8226 leukemia = tested on: RPMI-8226 leukemia
RXF 393 renal = tested on: RXF 393 renal
SF-268 CNS = tested on: SF-268 CNS
SF-295 CNS = tested on: SF-295 CNS
SF-539 CNS = tested on: SF-539 CNS
SK-MEL-2 melanoma = tested on: SK-MEL-2 melanoma
SK-MEL-28 melanoma = tested on: SK-MEL-28 melanoma
SK-MEL-5 melanoma = tested on: SK-MEL-5 melanoma
SK-OV-3 ovarian = tested on: SK-OV-3 ovarian
SN12C renal = tested on: SN12C renal
SNB-19 CNS = tested on: SNB-19 CNS
SNB-75 CNS = tested on: SNB-75 CNS
SR leukemia = tested on: SR leukemia
SW-620 colon = tested on: SW-620 colon
T-47D breast = tested on: T-47D breast
TK-10 renal = tested on: TK-10 renal
U251 CNS = tested on: U251 CNS
UACC-257 melanoma = tested on: UACC-257 melanoma
UACC-62 melanoma = tested on: UACC-62 melanoma
UO-31 renal = tested on: UO-31 renal
OVCAR-3 ovarian = tested on: OVCAR-3 ovarian

## CN1CCN(Cc2ccc(NC(=O)c3cncc(C#Cc4cnc5ccc(OCC6(C)COC6)nn45)c3)cc2C(F)(F)F)CC1
786-0 renal
  GI50: 215 nM
  TGI: 720 nM
A498 renal
  GI50: 142 nM
  TGI: 407 nM
A549 NSCLC
  GI50: 145 nM
  TGI: 433 nM
ACHN renal
  GI50: 108 nM
  TGI: 465 nM
BT-549 breast
  GI50: 320 nM
  TGI: 940 nM
CAKI-1 renal
  GI50: 87.8 nM
  TGI: 254 nM
CCRF-CEM leukemia
  GI50: 165 nM
  TGI: 15900 nM
COLO 205 colon
  GI50: 111 nM
  TGI: 236 nM
DU-145 prostate
  GI50: 164 nM
  TGI: 527 nM
EKVX NSCLC
  GI50: 152 nM
  TGI: 641 nM
HCC-2998 colon
  GI50: 199 nM
  TGI: 656 nM
HCT-116 colon
  GI50: 125 nM
  TGI: 476 nM
HCT-15 colon
  GI50: 123 nM
  TGI: 408 nM
HL-60(TB) leukemia
  GI50: 190 nM
  TGI: 604 nM
HOP-62 NSCLC
  GI50: 156 nM
  TGI: 518 nM
HOP-92 NSCLC
  GI50: 59.5 nM
  TGI: 217 nM
HS 578T breast
  GI50: 80.4 nM
  TGI: 321 nM
HT29 colon
  GI50: 151 nM
  TGI: 639 nM
IGROV1 ovarian
  GI50: 105 nM
  TGI: 437 nM
K-562 leukemia
  GI50: 5 nM
  TGI: 50000 nM
KM12 colon
  GI50: 5 nM
  TGI: 352 nM
LOX IMVI melanoma
  GI50: 107 nM
  TGI: 322 nM
M14 melanoma
  GI50: 84.9 nM
  TGI: 218 nM
MALME-3M melanoma
  GI50: 89 nM
  TGI: 303 nM
MCF7 breast
  GI50: 86 nM
  TGI: 525 nM
MDA-MB-231 breast
  GI50: 73.1 nM
  TGI: 243 nM
MDA-MB-435
  GI50: 142 nM
  TGI: 535 nM
MOLT-4 leukemia
  GI50: 145 nM
  TGI: 16500 nM
NCI-H226 lung
  GI50: 98.5 nM
  TGI: 975 nM
NCI-H23 lung
  GI50: 134 nM
  TGI: 462 nM
NCI-H460 lung
  GI50: 194 nM
  TGI: 669 nM
NCI-H522 lung
  GI50: 96.7 nM
  TGI: 204 nM
NCI/ADR-RES ovarian
  GI50: 163 nM
  TGI: 580 nM
OVCAR-4 ovarian
  GI50: 135 nM
  TGI: 757 nM
OVCAR-5 ovarian
  GI50: 172 nM
  TGI: 609 nM
OVCAR-8 ovarian
  GI50: 157 nM
  TGI: 547 nM
PC-3 prostate
  GI50: 218 nM
  TGI: 830 nM
RPMI-8226 leukemia
  GI50: 223 nM
  TGI: 1440 nM
RXF 393 renal
  GI50: 113 nM
  TGI: 294 nM
SF-268 CNS
  GI50: 117 nM
  TGI: 333 nM
SF-295 CNS
  GI50: 440 nM
  TGI: 1070 nM
SF-539 CNS
  GI50: 91.1 nM
  TGI: 573 nM
SK-MEL-2 melanoma
  GI50: 102 nM
  TGI: 218 nM
SK-MEL-28 melanoma
  GI50: 167 nM
  TGI: 612 nM
SK-MEL-5 melanoma
  GI50: 642 nM
  TGI: 1280 nM
SK-OV-3 ovarian
  GI50: 233 nM
  TGI: 747 nM
SN12C renal
  GI50: 112 nM
  TGI: 489 nM
SNB-19 CNS
  GI50: 200 nM
  TGI: 668 nM
SNB-75 CNS
  GI50: 128 nM
  TGI: 357 nM
SR leukemia
  GI50: 140 nM
  TGI: 1650 nM
SW-620 colon
  GI50: 121 nM
  TGI: 317 nM
T-47D breast
  GI50: 279 nM
  TGI: 1150 nM
TK-10 renal
  GI50: 149 nM
  TGI: 451 nM
U251 CNS
  GI50: 193 nM
  TGI: 715 nM
UACC-257 melanoma
  GI50: 228 nM
  TGI: 829 nM
UACC-62 melanoma
  GI50: 125 nM
  TGI: 577 nM
UO-31 renal
  GI50: 130 nM
  TGI: 436 nM

## CNC1CCc2c(sc(NC(=O)c3ccc(C(C)(C)C)cc3)c2C(N)=O)C1 (stereo unspecified)
786-0 renal
  GI50: 1610 nM
  TGI: 3100 nM
A498 renal
  GI50: 1480 nM
  TGI: 4280 nM
A549 NSCLC
  GI50: 2090 nM
  TGI: 4460 nM
ACHN renal
  GI50: 2010 nM
  TGI: 4230 nM
BT-549 breast
  GI50: 1850 nM
  TGI: 4670 nM
CAKI-1 renal
  GI50: 1900 nM
  TGI: 3810 nM
CCRF-CEM leukemia
  GI50: 1520 nM
  TGI: 4850 nM
COLO 205 colon
  GI50: 1730 nM
  TGI: 3540 nM
DU-145 prostate
  GI50: 1950 nM
  TGI: 4030 nM
EKVX NSCLC
  GI50: 1720 nM
  TGI: 4260 nM
HCC-2998 colon
  GI50: 1760 nM
  TGI: 3340 nM
HCT-116 colon
  GI50: 1340 nM
  TGI: 2660 nM
HCT-15 colon
  GI50: 1520 nM
  TGI: 3150 nM
HL-60(TB) leukemia
  GI50: 634 nM
  TGI: 2360 nM
HOP-62 NSCLC
  GI50: 1550 nM
  TGI: 3600 nM
HOP-92 NSCLC
  GI50: 944 nM
  TGI: 5040 nM
HS 578T breast
  GI50: 2150 nM
  TGI: 5430 nM
HT29 colon
  GI50: 1290 nM
  TGI: 3710 nM
IGROV1 ovarian
  GI50: 1590 nM
  TGI: 3580 nM
K-562 leukemia
  GI50: 1320 nM
  TGI: 3340 nM
KM12 colon
  GI50: 1890 nM
  TGI: 3610 nM
M14 melanoma
  GI50: 1750 nM
  TGI: 3600 nM
MALME-3M melanoma
  GI50: 1630 nM
  TGI: 3260 nM
MCF7 breast
  GI50: 1650 nM
  TGI: 3530 nM
MDA-MB-231 breast
  GI50: 1610 nM
  TGI: 2970 nM
MDA-MB-435
  GI50: 1750 nM
  TGI: 3400 nM
MOLT-4 leukemia
  GI50: 1740 nM
  TGI: 4090 nM
NCI-H226 lung
  GI50: 1870 nM
  TGI: 4020 nM
NCI-H23 lung
  GI50: 1670 nM
  TGI: 3620 nM
NCI-H460 lung
  GI50: 1630 nM
  TGI: 3330 nM
NCI/ADR-RES ovarian
  GI50: 2340 nM
  TGI: 6340 nM
OVCAR-3 ovarian
  GI50: 1920 nM
  TGI: 3990 nM
OVCAR-4 ovarian
  GI50: 2050 nM
  TGI: 5030 nM
OVCAR-5 ovarian
  GI50: 2000 nM
  TGI: 4390 nM
OVCAR-8 ovarian
  GI50: 2660 nM
  TGI: 6930 nM
PC-3 prostate
  GI50: 1730 nM
  TGI: 4020 nM
RPMI-8226 leukemia
  GI50: 1950 nM
  TGI: 4890 nM
RXF 393 renal
  GI50: 1420 nM
  TGI: 2810 nM
SF-268 CNS
  GI50: 2440 nM
  TGI: 5420 nM
SF-295 CNS
  GI50: 1760 nM
  TGI: 3270 nM
SF-539 CNS
  GI50: 1660 nM
  TGI: 3070 nM
SK-MEL-2 melanoma
  GI50: 2000 nM
  TGI: 4100 nM
SK-MEL-28 melanoma
  GI50: 1730 nM
  TGI: 3250 nM
SK-MEL-5 melanoma
  GI50: 1700 nM
  TGI: 3080 nM
SK-OV-3 ovarian
  GI50: 2350 nM
  TGI: 6140 nM
SN12C renal
  GI50: 2400 nM
  TGI: 7340 nM
SNB-19 CNS
  GI50: 1870 nM
  TGI: 3640 nM
SNB-75 CNS
  GI50: 2020 nM
  TGI: 5660 nM
SR leukemia
  GI50: 1290 nM
  TGI: 3510 nM
SW-620 colon
  GI50: 1910 nM
  TGI: 3660 nM
T-47D breast
  GI50: 2060 nM
  TGI: 5590 nM
TK-10 renal
  GI50: 2000 nM
  TGI: 3760 nM
U251 CNS
  GI50: 1810 nM
  TGI: 3790 nM
UACC-257 melanoma
  GI50: 1920 nM
  TGI: 4430 nM
UACC-62 melanoma
  GI50: 1660 nM
  TGI: 3060 nM
UO-31 renal
  GI50: 1510 nM
  TGI: 3460 nM
